# According to article PMC11124822, “Discovery and Anticancer Screening of Novel Oxindole-Based Derivative Bearing Pyridyl Group as Potent and Selective Dual FLT3/CDK2 Kinase Inhibitor” (Pharmaceuticals, 2024):
# Read-outs that look alike come from different tables or passages of the source.
# What was measured:
# [1] = tested on: NCI-H226; assay: NCI-60 antiproliferative screen (SRB); assay type: cell-based, human; details: 48 h
# [2] = target: T1, VEGFR-2 (Homo sapiens, UniProt P35968); assay: VEGFR-2/KDR ELISA kit kinase assay; assay type: biochemical
# T1 construct: purchased
# Experimental: (§1) The inhibition percentages of the target compound 5l at a concentration of 10 µM were assessed using DMSO as a solvent against ten kinases, namely PTK2B, JAK1, CDK2, FGFR1, IGF1R, VEGFR-2, PDGFRα, PDGFRβ, FLT3, and Src. The Z’-LYTE® technology, which relies on FRET (Fluorescence Resonance Energy Transfer) from Invitrogen/Life Technologies, was employed for this evaluation for all kinases except VEGFR-2. The VEGFR-2 kinase assay was conducted in a 96-well streptavidin-coated plate using a recombinant human VEGFR-2/KDR ELISA kit, following the manufacturer’s instructions. […] Statistical significance was assessed using one-way analysis of variance (ANOVA), followed by the Dunnett test; data are represented as means ± SD.
# [3] = tested on: Renal cancer subpanel; assay: NCI-60 screen, subpanel summary; assay type: cell-based, human
# Description: (§2) (Table 5). Moreover, the ratio of the MG-MID of the full-panel to its individual sub-panels offers the selectivity index.
# [4] = tested on: CNS cancer subpanel; assay: NCI-60 screen, subpanel summary; assay type: cell-based, human
# Description: as §2
# [5] = tested on: NSCL cancer subpanel; assay: NCI-60 screen, subpanel summary; assay type: cell-based, human
# Description: as §2
# [6] = tested on: Melanoma subpanel; assay: NCI-60 screen, subpanel summary; assay type: cell-based, human
# Description: as §2
# [7] = tested on: Leukemia subpanel; assay: NCI-60 screen, subpanel summary; assay type: cell-based, human
# Description: as §2
# [8] = tested on: Prostate cancer subpanel; assay: NCI-60 screen, subpanel summary; assay type: cell-based, human
# Description: as §2
# [9] = tested on: Colon cancer subpanel; assay: NCI-60 screen, subpanel summary; assay type: cell-based, human
# Description: as §2
# [10] = tested on: Ovarian cancer subpanel; assay: NCI-60 screen, subpanel summary; assay type: cell-based, human
# Description: as §2
# [11] = tested on: Breast cancer subpanel; assay: NCI-60 screen, subpanel summary; assay type: cell-based, human
# Description: as §2
# [12] = target: T2, PTK2B (Homo sapiens, UniProt Q14289); assay: Z'-LYTE kinase assay; assay type: biochemical
# T2 construct: purchased Invitrogen/Life Technologies
# T2 sequence (Q14289 whole entry): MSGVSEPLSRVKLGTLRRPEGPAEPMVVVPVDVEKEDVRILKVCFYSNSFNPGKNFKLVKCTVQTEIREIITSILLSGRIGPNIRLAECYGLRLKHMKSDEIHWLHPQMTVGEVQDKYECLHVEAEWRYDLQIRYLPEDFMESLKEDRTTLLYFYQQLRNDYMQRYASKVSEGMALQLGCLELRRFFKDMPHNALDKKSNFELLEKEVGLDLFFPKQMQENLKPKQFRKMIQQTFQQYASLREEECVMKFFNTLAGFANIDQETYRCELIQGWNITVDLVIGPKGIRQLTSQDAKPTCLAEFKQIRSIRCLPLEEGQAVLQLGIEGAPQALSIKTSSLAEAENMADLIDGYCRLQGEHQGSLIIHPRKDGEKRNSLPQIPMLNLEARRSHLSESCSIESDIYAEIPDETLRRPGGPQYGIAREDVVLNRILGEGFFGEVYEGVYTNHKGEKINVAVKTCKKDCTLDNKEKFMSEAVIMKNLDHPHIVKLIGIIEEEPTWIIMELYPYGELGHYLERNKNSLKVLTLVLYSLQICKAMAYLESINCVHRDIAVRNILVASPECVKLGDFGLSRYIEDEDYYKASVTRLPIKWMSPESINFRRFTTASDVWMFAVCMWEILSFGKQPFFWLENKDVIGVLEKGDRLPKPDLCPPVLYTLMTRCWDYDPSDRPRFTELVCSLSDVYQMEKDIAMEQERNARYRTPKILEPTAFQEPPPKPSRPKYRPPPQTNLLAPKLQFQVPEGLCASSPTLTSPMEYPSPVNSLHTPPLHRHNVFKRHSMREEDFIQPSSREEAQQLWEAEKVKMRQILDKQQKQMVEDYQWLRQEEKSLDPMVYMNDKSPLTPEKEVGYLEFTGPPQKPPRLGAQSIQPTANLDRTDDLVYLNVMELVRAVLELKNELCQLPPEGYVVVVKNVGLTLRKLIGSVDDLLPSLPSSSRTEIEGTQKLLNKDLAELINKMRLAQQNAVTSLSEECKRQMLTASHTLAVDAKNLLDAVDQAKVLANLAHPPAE
# Experimental: as §1
# [13] = target: T3, SRC (Homo sapiens, UniProt P12931); assay: Z'-LYTE kinase assay; assay type: biochemical
# T3 construct: purchased Invitrogen/Life Technologies
# T3 sequence (P12931 whole entry): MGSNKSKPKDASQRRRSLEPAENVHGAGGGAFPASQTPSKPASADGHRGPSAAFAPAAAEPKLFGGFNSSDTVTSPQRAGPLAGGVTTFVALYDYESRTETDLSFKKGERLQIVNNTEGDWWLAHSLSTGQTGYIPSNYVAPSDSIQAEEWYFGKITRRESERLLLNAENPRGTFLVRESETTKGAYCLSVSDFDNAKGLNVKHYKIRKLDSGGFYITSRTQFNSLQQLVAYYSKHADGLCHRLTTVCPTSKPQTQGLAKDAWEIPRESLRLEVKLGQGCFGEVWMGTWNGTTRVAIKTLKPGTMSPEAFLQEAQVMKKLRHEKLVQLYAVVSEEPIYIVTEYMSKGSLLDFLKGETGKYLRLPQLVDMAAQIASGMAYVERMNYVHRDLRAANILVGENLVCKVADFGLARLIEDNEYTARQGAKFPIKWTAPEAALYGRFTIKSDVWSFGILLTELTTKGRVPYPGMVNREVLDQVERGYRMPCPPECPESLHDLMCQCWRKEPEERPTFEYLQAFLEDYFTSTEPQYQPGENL
# Experimental: as §1
# [14] = target: T4, IGF1R (Homo sapiens, UniProt P08069); assay: Z'-LYTE kinase assay; assay type: biochemical
# T4 construct: purchased Invitrogen/Life Technologies
# Experimental: as §1
# [15] = target: T5, PDGFRα (Homo sapiens, UniProt P16234); assay: Z'-LYTE kinase assay; assay type: biochemical
# T5 construct: purchased Invitrogen/Life Technologies
# T5 sequence (P16234 24-1089): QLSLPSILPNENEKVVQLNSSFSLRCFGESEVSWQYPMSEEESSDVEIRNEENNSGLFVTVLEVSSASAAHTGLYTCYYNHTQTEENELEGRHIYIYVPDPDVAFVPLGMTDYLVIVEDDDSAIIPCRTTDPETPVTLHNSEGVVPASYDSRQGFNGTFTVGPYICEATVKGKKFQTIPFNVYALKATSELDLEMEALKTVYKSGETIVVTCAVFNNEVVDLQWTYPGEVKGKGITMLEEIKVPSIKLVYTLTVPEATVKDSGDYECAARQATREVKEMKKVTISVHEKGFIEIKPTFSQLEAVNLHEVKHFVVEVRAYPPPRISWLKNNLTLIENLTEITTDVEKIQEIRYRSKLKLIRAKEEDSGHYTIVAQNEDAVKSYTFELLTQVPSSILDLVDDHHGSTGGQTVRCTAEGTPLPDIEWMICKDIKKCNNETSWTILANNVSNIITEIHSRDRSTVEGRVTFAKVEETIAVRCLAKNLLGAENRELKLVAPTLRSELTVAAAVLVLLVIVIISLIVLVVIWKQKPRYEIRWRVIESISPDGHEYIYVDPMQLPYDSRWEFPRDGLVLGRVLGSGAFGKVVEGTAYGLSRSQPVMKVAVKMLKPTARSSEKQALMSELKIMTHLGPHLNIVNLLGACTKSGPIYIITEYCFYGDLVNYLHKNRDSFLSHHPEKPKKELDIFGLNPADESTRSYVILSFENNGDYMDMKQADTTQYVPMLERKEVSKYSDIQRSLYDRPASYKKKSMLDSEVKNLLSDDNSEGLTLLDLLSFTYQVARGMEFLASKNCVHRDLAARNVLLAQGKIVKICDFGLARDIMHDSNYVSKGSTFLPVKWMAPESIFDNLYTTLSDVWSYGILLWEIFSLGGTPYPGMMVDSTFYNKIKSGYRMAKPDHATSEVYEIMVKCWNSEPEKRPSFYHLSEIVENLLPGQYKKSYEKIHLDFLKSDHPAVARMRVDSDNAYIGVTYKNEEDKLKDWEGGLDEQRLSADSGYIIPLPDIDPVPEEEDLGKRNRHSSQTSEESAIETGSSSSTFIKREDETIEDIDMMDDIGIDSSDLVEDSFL
# Experimental: as §1
# [16] = target: T6, FGFR1 (Homo sapiens, UniProt P11362); assay: Z'-LYTE kinase assay; assay type: biochemical
# T6 construct: purchased Invitrogen/Life Technologies
# Experimental: as §1
# [17] = target: T7, JAK1 (Homo sapiens, UniProt P23458); assay: Z'-LYTE kinase assay; assay type: biochemical
# T7 construct: purchased Invitrogen/Life Technologies
# T7 sequence (P23458 whole entry): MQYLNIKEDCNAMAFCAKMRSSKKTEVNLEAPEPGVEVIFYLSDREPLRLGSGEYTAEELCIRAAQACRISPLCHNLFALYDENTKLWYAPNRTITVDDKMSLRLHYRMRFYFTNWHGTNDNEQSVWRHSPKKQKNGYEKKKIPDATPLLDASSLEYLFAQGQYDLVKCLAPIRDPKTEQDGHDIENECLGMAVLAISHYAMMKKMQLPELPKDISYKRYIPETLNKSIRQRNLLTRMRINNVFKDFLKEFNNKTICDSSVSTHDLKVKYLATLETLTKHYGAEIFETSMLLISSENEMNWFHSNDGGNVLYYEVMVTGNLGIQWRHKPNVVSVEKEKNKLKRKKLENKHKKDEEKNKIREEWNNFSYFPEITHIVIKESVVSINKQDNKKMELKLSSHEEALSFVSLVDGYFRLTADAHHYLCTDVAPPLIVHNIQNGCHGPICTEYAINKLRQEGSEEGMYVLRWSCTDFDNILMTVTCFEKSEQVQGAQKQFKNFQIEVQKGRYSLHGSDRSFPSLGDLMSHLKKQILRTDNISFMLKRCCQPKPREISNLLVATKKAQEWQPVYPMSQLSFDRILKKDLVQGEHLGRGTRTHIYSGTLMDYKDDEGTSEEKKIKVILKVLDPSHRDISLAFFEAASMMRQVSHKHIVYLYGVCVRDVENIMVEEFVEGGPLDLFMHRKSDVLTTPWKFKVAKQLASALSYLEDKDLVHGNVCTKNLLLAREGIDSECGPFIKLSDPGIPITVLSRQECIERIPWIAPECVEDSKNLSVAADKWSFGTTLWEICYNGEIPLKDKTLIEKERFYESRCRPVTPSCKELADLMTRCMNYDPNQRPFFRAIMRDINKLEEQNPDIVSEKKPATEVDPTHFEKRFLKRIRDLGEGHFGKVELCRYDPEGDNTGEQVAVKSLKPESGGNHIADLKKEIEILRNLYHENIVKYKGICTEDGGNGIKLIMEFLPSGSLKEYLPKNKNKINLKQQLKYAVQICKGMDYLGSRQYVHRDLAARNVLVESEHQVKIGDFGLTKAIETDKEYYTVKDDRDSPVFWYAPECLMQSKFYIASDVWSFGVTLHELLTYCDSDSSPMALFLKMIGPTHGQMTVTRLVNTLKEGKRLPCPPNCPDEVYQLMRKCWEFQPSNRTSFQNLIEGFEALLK
# Experimental: as §1
# [18] = target: T8, PDGFRβ (Homo sapiens, UniProt P09619); assay: Z'-LYTE kinase assay; assay type: biochemical
# T8 construct: purchased Invitrogen/Life Technologies
# T8 sequence (P09619 33-1106): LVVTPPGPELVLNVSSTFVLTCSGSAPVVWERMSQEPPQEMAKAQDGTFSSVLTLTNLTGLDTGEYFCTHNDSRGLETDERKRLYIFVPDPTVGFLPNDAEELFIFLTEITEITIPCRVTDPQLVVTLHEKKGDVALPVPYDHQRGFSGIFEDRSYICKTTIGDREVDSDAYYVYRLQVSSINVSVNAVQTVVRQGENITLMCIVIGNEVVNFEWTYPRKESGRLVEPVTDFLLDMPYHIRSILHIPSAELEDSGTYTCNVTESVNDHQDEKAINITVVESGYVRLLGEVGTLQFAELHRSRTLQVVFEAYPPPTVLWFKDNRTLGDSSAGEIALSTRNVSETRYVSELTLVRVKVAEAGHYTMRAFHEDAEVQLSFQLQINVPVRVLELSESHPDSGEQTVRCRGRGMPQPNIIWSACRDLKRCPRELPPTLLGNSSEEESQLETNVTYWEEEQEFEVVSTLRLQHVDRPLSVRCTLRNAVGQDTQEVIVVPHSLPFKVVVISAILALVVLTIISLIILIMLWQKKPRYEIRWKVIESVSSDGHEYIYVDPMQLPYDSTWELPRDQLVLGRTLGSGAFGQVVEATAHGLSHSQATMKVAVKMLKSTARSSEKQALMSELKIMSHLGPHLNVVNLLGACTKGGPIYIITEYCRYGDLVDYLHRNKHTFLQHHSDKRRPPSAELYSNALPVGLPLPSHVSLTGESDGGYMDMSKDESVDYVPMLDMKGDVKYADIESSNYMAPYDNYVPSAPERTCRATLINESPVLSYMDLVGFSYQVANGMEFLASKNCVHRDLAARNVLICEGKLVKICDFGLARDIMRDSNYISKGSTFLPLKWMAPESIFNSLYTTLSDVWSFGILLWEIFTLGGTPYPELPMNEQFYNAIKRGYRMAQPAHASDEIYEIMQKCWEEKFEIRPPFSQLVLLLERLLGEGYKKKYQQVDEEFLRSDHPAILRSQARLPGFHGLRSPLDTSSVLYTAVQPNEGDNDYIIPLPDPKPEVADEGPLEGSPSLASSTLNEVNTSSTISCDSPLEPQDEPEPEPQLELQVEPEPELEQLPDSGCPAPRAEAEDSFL
# Experimental: as §1
# [19] = tested on: NCI-60 human cancer cell lines; assay: NCI-60 screen, full panel summary; assay type: cell-based
# Experimental: In a comprehensive test, compounds were assayed at a single dose concentration (10^−5 M) in the full panel of NCI-60 cancer cell lines.
smiles,measurement,setting,value
"O=C1Nc2cc(Cl)ccc2C1=Cc1ccc(OCc2cccnc2)cc1 (mixture of isomers) [Compound 5l, (E/Z)-6-Chloro-3-[4-(pyridin-3-ylmethoxy)benzylidene] indolin-2-one]",inhibition at 10 µM,"[1]; Homo sapiens, 10 µM single dose, NCI-H226 (NSCLC), read-out: Growth inhibition (%)",62.9%
same,GI50,"[1]; Homo sapiens, five-dose, NCI-H226",9 µM
same,TGI,"[1]; five-dose, NCI-H226",70.00 µM
same,inhibition at 10 µM,[2],38.5%
same,GI50,"[3]; Homo sapiens, five-dose, Renal cancer subpanel, read-out: MG-MID (GI50)",19.8 µM
same,Selectivity Index,[3]; ratio of full-panel MG-MID to Renal cancer subpanel MG-MID,0.62
same,GI50,"[4]; Homo sapiens, five-dose, CNS cancer subpanel, read-out: MG-MID (GI50)",11 µM
same,Selectivity Index,[4]; ratio of full-panel MG-MID to CNS cancer subpanel MG-MID,1.11
same,GI50,"[5]; Homo sapiens, five-dose, NSCL cancer subpanel, read-out: MG-MID (GI50)",11.7 µM
same,Selectivity Index,[5]; ratio of full-panel MG-MID to NSCL cancer subpanel MG-MID,1.05
same,inhibition at 10 µM,"[6]; Homo sapiens, 10 µM, melanoma, read-out: overall inhibition in panel (radar chart)",> 90%
same,GI50,"[6]; Homo sapiens, five-dose, Melanoma subpanel, read-out: MG-MID (GI50)",10.9 µM
same,Selectivity Index,[6]; ratio of full-panel MG-MID to Melanoma subpanel MG-MID,1.12
same,inhibition at 10 µM,"[7]; Homo sapiens, 10 µM, leukemia, read-out: overall inhibition in panel (radar chart)",> 90%
same,GI50,"[7]; Homo sapiens, five-dose, Leukemia subpanel, read-out: MG-MID (GI50)",3.39 µM
same,Selectivity Index,[7]; ratio of full-panel MG-MID to Leukemia subpanel MG-MID,3.61
same,GI50,"[8]; Homo sapiens, five-dose, Prostate cancer subpanel, read-out: MG-MID (GI50)",9.78 µM
same,Selectivity Index,[8]; ratio of full-panel MG-MID to Prostate cancer subpanel MG-MID,1.25
same,inhibition at 10 µM,"[9]; Homo sapiens, 10 µM, colon cancer, read-out: overall inhibition in panel (radar chart)",> 90%
same,GI50,"[9]; Homo sapiens, five-dose, Colon cancer subpanel, read-out: MG-MID (GI50)",5.97 µM
same,Selectivity Index,[9]; ratio of full-panel MG-MID to Colon cancer subpanel MG-MID,2.05
same,GI50,"[10]; Homo sapiens, five-dose, Ovarian cancer subpanel, read-out: MG-MID (GI50)",29.4 µM
same,Selectivity Index,[10]; ratio of full-panel MG-MID to Ovarian cancer subpanel MG-MID,0.42
same,GI50,"[11]; Homo sapiens, five-dose, Breast cancer subpanel, read-out: MG-MID (GI50)",8.14 µM
same,Selectivity Index,[11]; ratio of full-panel MG-MID to Breast cancer subpanel MG-MID,1.50
same,inhibition at 10 µM,[12],9.96%
same,inhibition at 10 µM,[13],10.9%
same,inhibition at 10 µM,[14],2.88%
same,inhibition at 10 µM,[15],43.5%
same,inhibition at 10 µM,[16],24.1%
same,inhibition at 10 µM,[17],4.17%
same,inhibition at 10 µM,[18],26.6%
same,Positive Cytostatic Effect (cell lines with percent growth from 0 to 50 / total number of cell lines),[19]; 10 µM single dose,44/56
same,Positive Cytotoxic Effect (cell lines with percent growth of <0 / total number of cell lines),[19]; 10 µM single dose,4/56
same,Sensitive/Total Cell Lines,[19]; 10 µM single dose,48/56
same,The Most Sensitive Cell Line,[19]; 10 µM single dose,SK-MEL-5
same,number of cell lines with cytostatic effects,[19]; 10 µM single dose,44
same,number of cell lines with cytotoxic effects,[19]; 10 µM single dose,4
same,Mean Growth Percent,"[19]; 10 µM single dose, all NCI-60 cell lines",72.81
same,inhibition at 10 µM,"[19]; Homo sapiens, 10 µM single dose, read-out: Range of Growth Inhibition on All Cells",8.89 to 153%
same,GI50,"[19]; Homo sapiens, five-dose, almost all cell lines, read-out: GI50 values, range over evaluated human cancer types",2.7 to 77.1 µM
same,CC50,"[19]; Homo sapiens, five-dose, excluding LOX IMVI, SK-MEL-5, SK-MEL-28, read-out: LC50 for most of the examined cancer cells",> 100 µM
same,GI50,"[19]; Homo sapiens, five-dose, full panel, read-out: Full panel MG-MID (GI50)",12.2 µM
same,TGI against the left-over cancer cells,[19]; five-dose,> 100 µM
